{
  "source": "PubChem BioAssay AID1259411",
  "about": "(Chemical Carcinogenesis Research Information System (CCRIS), 2018)",
  "system": "rodent carcinogenicity bioassays, tumor incidence",
  "experiment": "CCRIS carcinogenicity studies",
  "outline": "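NCI-built, expert-reviewed records of carcinogenicity and related test outcomes (mutagenicity, tumor promotion/inhibition) compiled from published and report sources, historical span 1985-2011, not updated.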",
  "note": "Calls of active or inactive are those of the source. The rule behind the calls is not given here.",
  "data": [
    {"smiles": "O=C1CN(/N=C/c2ccc([N+](=O)[O-])o2)C(=O)N1", "values": [
      {"measurement": "carcinogen call", "setting": "Species: MOUSE, Strain/Sex: B6C3F1/FEMALE, Route: ORAL, Dose: 0, 1300, 2500 PPM IN FEED FOR 103 WK (STUDY DURATION: 105 WK), Dose: 0, 1300, 2500 PPM IN FEED FOR 103 WK (STUDY DURATION: 105 WK), Tumor Site: Type of Lesion: OVARY: TUBULAR ADENOMA, MIXED TUMOR (BENIGN)", "value": "active; positive"},
      {"measurement": "carcinogen call", "setting": "Species: MOUSE, Strain/Sex: B6C3F1/MALE, Route: ORAL, Dose: 0, 1300, 2500 PPM IN FEED FOR 103 WK (STUDY DURATION: 105 WK), Dose: 0, 1300, 2500 PPM IN FEED FOR 103 WK (STUDY DURATION: 105 WK)", "value": "inactive; negative"},
      {"measurement": "carcinogen call", "setting": "Species: MOUSE, Strain/Sex: BDF1/FEMALE, Route: ORAL, Dose: 0, 0.075, 0.3% IN DIET BEGINNING AT 9 WK OF AGE AND CONTINUING FOR DURATION OF STUDY (STUDY DURATION: 24 MO), Dose: 0, 0.075, 0.3% IN DIET BEGINNING AT 9 WK OF AGE AND CONTINUING FOR DURATION OF STUDY (STUDY DURATION: 24 MO)", "value": "inactive; negative"},
      {"measurement": "carcinogen call", "setting": "Species: MOUSE, Strain/Sex: BDF1/MALE, Route: ORAL, Dose: 0, 0.075, 0.3% IN DIET BEGINNING AT 9 WK OF AGE AND CONTINUING FOR DURATION OF STUDY (STUDY DURATION: 24 MO), Dose: 0, 0.075, 0.3% IN DIET BEGINNING AT 9 WK OF AGE AND CONTINUING FOR DURATION OF STUDY (STUDY DURATION: 24 MO)", "value": "inactive; negative"},
      {"measurement": "carcinogen call", "setting": "Species: MOUSE, Strain/Sex: ICR/MALE, FEMALE, Route: TRANSPLACENTAL, Dose: 0, 75 UG/G ADMINISTERED SUBCUTANEOUSLY TO MOTHERS ON DAYS 13, 15 AND 17 OF GESTATION (STUDY DURATION: 33 WK), Tumor Site: Type of Lesion: LUNG: PAPILLARY ADENOMA", "value": "active; positive"},
      {"measurement": "carcinogen call", "setting": "Species: MOUSE, Strain/Sex: SWISS/FEMALE, Route: ORAL, Dose: 0, 0.03% IN DIET FOR 441 D, THEN 0.04% IN DIET FOR DURATION OF STUDY (TOTAL AVERAGE DOSE: 58.76 MG/KG) (STUDY DURATION:, Dose: 0, 0.03% IN DIET FOR 441 D, THEN 0.04% IN DIET FOR DURATION OF STUDY (TOTAL AVERAGE DOSE: 58.76 MG/KG) (STUDY DURATION:", "value": "inactive; negative"},
      {"measurement": "carcinogen call", "setting": "Species: MOUSE, Strain/Sex: SWISS/FEMALE, Route: ORAL, Dose: 0, 0.06% IN DIET FOR 441 D, THEN 0.075% IN DIET FOR DURATION OF STUDY (TOTAL AVERAGE DOSE: 115.59 MG/KG) (STUDY DURATION, Dose: 0, 0.06% IN DIET FOR 441 D, THEN 0.075% IN DIET FOR DURATION OF STUDY (TOTAL AVERAGE DOSE: 115.59 MG/KG) (STUDY DURATION", "value": "inactive; negative"},
      {"measurement": "carcinogen call", "setting": "Species: MOUSE, Strain/Sex: SWISS/FEMALE, Route: ORAL, Dose: 0, 0.13% IN DIET FOR 441 D, THEN 0.155% IN DIET FOR DURATION OF STUDY (TOTAL AVERAGE DOSE: 224.07 MG/KG) (STUDY DURATION, Dose: 0, 0.13% IN DIET FOR 441 D, THEN 0.155% IN DIET FOR DURATION OF STUDY (TOTAL AVERAGE DOSE: 224.07 MG/KG) (STUDY DURATION", "value": "inactive; negative"},
      {"measurement": "carcinogen call", "setting": "Species: MOUSE, Strain/Sex: SWISS/MALE, Route: ORAL, Dose: 0, 0.03% IN DIET FOR 441 D, THEN 0.04% IN DIET FOR DURATION OF STUDY (TOTAL AVERAGE DOSE: 43.63 MG/KG) (STUDY DURATION:, Dose: 0, 0.03% IN DIET FOR 441 D, THEN 0.04% IN DIET FOR DURATION OF STUDY (TOTAL AVERAGE DOSE: 43.63 MG/KG) (STUDY DURATION:", "value": "inactive; negative"},
      {"measurement": "carcinogen call", "setting": "Species: MOUSE, Strain/Sex: SWISS/MALE, Route: ORAL, Dose: 0, 0.06% IN DIET FOR 441 D, THEN 0.075% IN DIET FOR DURATION OF STUDY (TOTAL AVERAGE DOSE: 83.59 MG/KG) (STUDY DURATION:, Dose: 0, 0.06% IN DIET FOR 441 D, THEN 0.075% IN DIET FOR DURATION OF STUDY (TOTAL AVERAGE DOSE: 83.59 MG/KG) (STUDY DURATION:", "value": "inactive; negative"},
      {"measurement": "carcinogen call", "setting": "Species: MOUSE, Strain/Sex: SWISS/MALE, Route: ORAL, Dose: 0, 0.13% IN DIET FOR 441 D, THEN 0.155% IN DIET FOR DURATION OF STUDY (TOTAL AVERAGE DOSE: 181.14 MG/KG) (STUDY DURATION, Dose: 0, 0.13% IN DIET FOR 441 D, THEN 0.155% IN DIET FOR DURATION OF STUDY (TOTAL AVERAGE DOSE: 181.14 MG/KG) (STUDY DURATION, Tumor Site: Type of Lesion: HEMATOPOIETIC SYSTEM: MALIGNANT LYMPHOMA", "value": "active; positive"},
      {"measurement": "carcinogen call", "setting": "Species: RAT, Strain/Sex: F344/FEMALE, Route: ORAL, Dose: 0, 600, 1300 PPM IN FEED FOR 103 WK (STUDY DURATION: 105 WK), Dose: 0, 600, 1300 PPM IN FEED FOR 103 WK (STUDY DURATION: 105 WK)", "value": "inactive; negative"},
      {"measurement": "carcinogen call", "setting": "Species: RAT, Strain/Sex: F344/MALE, Route: ORAL, Dose: 0, 0.187% IN DIET FOR 104 WK (STUDY DURATION: 104 WK)", "value": "inactive; negative"},
      {"measurement": "carcinogen call", "setting": "Species: RAT, Strain/Sex: F344/MALE, Route: ORAL, Dose: 0, 1300, 2500 PPM IN FEED FOR 103 WK (STUDY DURATION: 105 WK), Dose: 0, 1300, 2500 PPM IN FEED FOR 103 WK (STUDY DURATION: 105 WK), Tumor Site: Type of Lesion: KIDNEY: TUBULAR ADENOMA OR CARCINOMA, SUBCUTANEOUS TISSUE: FIBROMA, FIBROMA OR FIBROSARCOMA", "value": "active; positive"},
      {"measurement": "carcinogen call", "setting": "Species: RAT, Strain/Sex: SPRAGUE-DAWLEY/FEMALE, Route: ORAL, Dose: 0, 0.188% IN DIET FOR 2 YR (STUDY DURATION: 2 YR), Tumor Site: Type of Lesion: MAMMARY GLAND: FIBROADENOMA", "value": "active; positive"},
      {"measurement": "carcinogen call", "setting": "Species: RAT, Strain/Sex: STRAIN-CD/FEMALE, Route: ORAL, Dose: 0, 12, 24, 48 MG/KG BW IN DIET FOR 24 MO (STUDY DURATION: 24 MO), Dose: 0, 12, 24, 48 MG/KG BW IN DIET FOR 24 MO (STUDY DURATION: 24 MO)", "value": "inactive; negative"},
      {"measurement": "carcinogen call", "setting": "Species: RAT, Strain/Sex: STRAIN-CD/MALE, Route: ORAL, Dose: 0, 12, 24, 48 MG/KG BW IN DIET FOR 24 MO (STUDY DURATION: 24 MO), Dose: 0, 12, 24, 48 MG/KG BW IN DIET FOR 24 MO (STUDY DURATION: 24 MO)", "value": "inactive; negative"}
    ]},
    {"smiles": "c1ccc2nc3c(cc2c1)c1c(c2ccccc23)O1", "values": [
      {"measurement": "carcinogen call", "setting": "Species: MOUSE, Strain/Sex: SWISS/FEMALE, Route: INTRAPERITONEAL, Dose: 0, 1.05 UMOL GIVEN AS 150 NMOL IN 5 µL DMSO WITHIN 24 HR OF BIRTH, 300 NMOL IN 10 µL DMSO ON D 8 OF LIFE, AND 600 NMOL I, Tumor Site: Type of Lesion: LUNG: ADENOMA", "value": "active; positive"},
      {"measurement": "carcinogen call", "setting": "Species: MOUSE, Strain/Sex: SWISS/MALE, Route: INTRAPERITONEAL, Dose: 0, 1.05 UMOL GIVEN AS 150 NMOL IN 5 µL DMSO WITHIN 24 HR OF BIRTH, 300 NMOL IN 10 µL DMSO ON D 8 OF LIFE, AND 600 NMOL I", "value": "inactive; negative"}
    ]},
    {"smiles": "[O]=[Al][O][Si](=O)O[Si](=O)[O][Al]=[O]", "values": [
      {"measurement": "carcinogen call", "setting": "Species: Rat, Strain/Sex: Wistar/Female (48/group), Route: Intratracheal, Dose: 6 mg instillations of 0.01-0.03 um particles given as 10 or 20 doses wk 26, study duration 115 or 121 wk or no treatment, Tumor Site: Type of Lesion: Lung: Bronchiolo-alveolar adenoma (12/48 and 11/47 in experimental animals vs 1/46 control animals), bronchiolo-alveolar", "value": "active; positive"}
    ]}
  ]
}
